One assay deals with A549 cells. To be noted: data provided by National Cancer Institute; cited from earlier work.
Assay [1] deals with Skov-3 cells (human ovarian cancer). In words: FACS analysis of cell cycle stage by DNA content (mitotic arrest). Type of assay: cell-based. Particulars: 24 hours treatment, paclitaxel at 10 nM. The protocol: FACS analysis to determine cell cycle stage by measuring DNA content was performed as follows. Skov-3 cells (human ovarian cancer) were split 1:10 for plating in 10 cm dishes and grown to subconfluence with RPMI 1640 medium containing 5% fetal bovine serum (FBS). The cells were then treated with either 10 nM paclitaxel, the test compound or 0.25% DMSO (vehicle for compounds) for 24 hours. Cells were then rinsed off the plates with PBS containing 5 mM EDTA, pelleted, washed once in PBS containing 1% FCS, and then fixed overnight in 85% ethanol at 4° C. Before analysis, the cells were pelleted, washed once, and stained in a solution of 10 μg propidium iodide and 250 μg of ribonuclease (RNAse) A per milliliter at 37° C. for half an hour. Flow cytometry analysis was performed on a Becton-Dickinson FACScan, and data from 10,000 cells per sample was analyzed with Modfit software.

As usually defined, the GI50 is the concentration that inhibits growth by half.

As to `O=c1[nH]cc(F)c(=O)[nH]1` [5-fluorouracil], the GI50 in the assay on A549 cells is 1000 nM. As to `CC(=O)O[C@H]1C(=O)[C@@]2(C)[C@H]([C@H](OC(=O)c3ccccc3)[C@]3(O)C[C@H](OC(=O)[C@H](O)[C@@H](NC(=O)c4ccccc4)c4ccccc4)C(C)=C1C3(C)C)[C@]1(OC(C)=O)CO[C@@H]1C[C@@H]2O` [paclitaxel], in the assay on A549 cells, the GI50 is 4 nM. Besides, the “shift in the population of cells from G0/G1 cell cycle stage (2n DNA content) to G2/M cell cycle stage (4n DNA content)” value in assay [1] is “caused a shift in the population of cells from a G0/G1 cell cycle stage (2n DNA content) to a G2/M cell cycle stage (4n DNA content)”. For `NC(=O)NO` [hydroxyurea], the GI50 with A549 cells is 500000 nM. For the compound `COc1cccc2c1C(=O)c1c(O)c3c(c(O)c1C2=O)C[C@@](O)(C(=O)CO)C[C@@H]3O[C@H]1C[C@H](N)[C@H](O)[C@H](C)O1` [doxorubicin], the GI50 with A549 cells is 63 nM.

Values taken from patent US7119089B2, “Phenothiazine kinesin inhibitors” (Cytokinetics, Inc., priority 2001, dated 2006).
